Common to all, as to type: cell-based
Test [1] concerns chicken blastodermal cells / chicken ESCs. The experiment in a line: Derivation and self-renewal culture of chicken ESCs from EGK.X blastodermal cells. Particulars: for emergence of morphologically undifferentiated ESC colonies: EGK.X blastodermal cells from Rhode Island Red eggs, single supplement, FIG. 8A. The method, then:
(§1) Freshly laid avian fertile eggs at EGK.X-XII stages were kept at 16° C. before extraction. To harvest cells from yolk, a filter paper-based method was applied. Filter paper with a hole at center was placed on top of the embryo. The outer edge of the filter paper was cut together with the vitelline membranes. Embryo were then released from yolk together with the filter paper and washed in PBS solution. Next, embryo was transferred into a 15 ml tube free of the paper ring and dissociated by pipetting inside N2B27 medium. Dissociated cells were cultured in tissue plates coated with irradiated mouse embryonic fibroblast (MEF) cells as feeder layer. Basal medium used for routine ESC maintenance was N2B27 medium composed of Dulbecco's Modified Eagle Medium/Nutrient Mixture F-12 (DMEM/F12):Neuralbasal (1:1) plus 0.5×N2, 0.5×B27 supplement and 20 μg/ml ovotransferrin with the addition of 1× penicillin-streptomycin. Avian ESC self-renewal was kept with 2.5 μM IWR-1, 2 μM Gö6983, 2 μM SB431542 plus chicken LIF (10 ng/ml for ESCs and 40 ng/ml for other avian ESCs). ESCs were cultured at 38° C. in 5% CO2 with daily medium change. To passage, TrypLE was used to incubate the cells for 5 min and neutralized with basal medium in triple amount. Cells were handled with 5 ml pipette all the time to avoid dissociation into singles. Cells can be frozen in Cellbanker 2 and stored at −150° C.

Test [2] relates to avian ESCs. The experiment in a line: Self-renewal of avian ESCs (species not specified). The method, then: as §1
Test [3] deals with quail blastodermal cells / quail ESCs. The experiment in a line: Derivation and self-renewal culture of quail ESCs. As to the method: We tested whether ESCs could be derived from other avian species in OT/2i. We isolated blastodermal cells from fertilized pheasant, duck and turkey eggs and cultured them in OT/2i. […] We examined whether blocking signaling pathways involved in cardiomyocyte differentiation from pluripotent stem cells could improve ESC self-renewal.
as §1, with “ESCs were cultured at 38° C. in 5% CO2 with daily medium change. To passage, TrypLE was used to incubate the cells for 5 min and neutralized with basal medium in triple amount. Cells were handled with 5 ml pipette all the time to avoid dissociation into singles. Cells can be frozen in Cellbanker 2 and stored at −150° C.” left out

The subject of the next test is ostrich ESCs. Kind of test: Derivation and self-renewal culture of ostrich ESCs. The method, then: as §1
Test [4] relates to avian ESCs. Kind of test: Induction of primordial germ cells (PGCs) from avian ESCs. Particulars: data not shown. From the text:
Next, we assessed the potential of chicken ESCs to differentiate into the germ cell lineage. We generated EBs from chicken ESCs and examined the expression of germ cell markers including Dazl, Cvh, Cxcr4, Sycp3 and Stra8. […] To further investigate germ cell differentiation potential of chicken ESCs, we examined the expression of key primordial germ cell (PGC) marker, DAZL by immunofluorescence staining in both undifferentiated chicken ESCs and differentiated EBs. […] A subset of cells (1-3%) in day 3-4 EBs stained positive for DAZL (FIG. 6C). DAZL expression could also be detected inside goose ESC-derived EBs (FIG. 6C).

This note sets out measurements from US20250163388A1, “METHODS FOR DERIVATION AND PROPAGATION OF AVIAN PLURIPOTENT STEM CELLS AND APPLICATIONS THEREOF” (UNIVERSITY OF SOUTHERN CALIFORNIA, priority 2022, published 2025).

Where two headings read alike, the source gives them in different places.

For `COc1ccc2c(c1)c(C1=C(c3c[nH]c4ccccc34)C(=O)NC1=O)cn2CCCN(C)C` [Gö6983], the “emergence of morphologically undifferentiated ESC colonies” value in test [1] is recorded as “Morphologically undifferentiated ESC colonies emerged”.
With `O=C(Nc1cccc2cccnc12)c1ccc(N2C(=O)[C@@H]3[C@H](C2=O)[C@@H]2C=C[C@H]3C2)cc1` [IWR-1], in test [1], the “emergence of morphologically undifferentiated ESC colonies” value is “Morphologically undifferentiated ESC colonies emerged”.
As to `NC(=O)c1ccc(-c2nc(-c3ccc4c(c3)OCO4)c(-c3ccccn3)[nH]2)cc1` [SB431542, 4-[4-(2H-1,3-Benzodioxol-5-yl)-5-(pyridin-2-yl)-1H-imidazol-2-yl]benzamide], in test [1], the “chicken ESC self-renewal” value is “stabilize and proliferate chicken ESCs in long-term passages”. The “self-renewal of avian ESCs” value with avian ESCs [2] is “does not promote the self-renewal”.
“human LIF: human leukemia inhibitory factor”: in test [3], the “quail ESC derivation and long-term self-renewal” value is recorded as “cannot be substituted”.
On to “human ortholog: human ortholog of ovotransferrin”, for which, in test [1], the “chicken ESC self-renewal” value was “could not be replaced”.

B1: chicken LIF: chicken leukemia inhibitory factor, SEQ ID NO: 2; yeast-derived recombinant (protein, listed as Gallus gallus)
chain: MRLIPAGVVPFVALLLLQRRPVSGRALLGTSSACPTNGLCRANVLEQTRRQVALLNATAQDLFSLYLKCQGEPFSSESDRLCSPSGIFFPPFHVNRTTERKEVMVAMYKLFAFLNASLGNITRDQEELNPMAKELLNRLHNTTKTTRGLISNLTCLLCKHYNIFQVDVSYGESSKDKSAFKKKQQGCQVLRKYVQVIAQAARVLLPHLSPA
As for B1, in test [1], the “chicken ESC self-renewal” value was “stabilize and proliferate chicken ESCs in long-term passages”. Further, in test [3], the “quail ESC derivation and long-term self-renewal” value is reported as “is necessary”. For the same molecule, the “ostrich ESC derivation, maintenance and differentiation” value with ostrich ESCs is “induced differentiation”; with ostrich ESCs (listed as LIF), “differentiating effect”.

B2: BMP4: a TGF-β superfamily ligand (protein, UniProt P12644 293-408, looked up)
Bone morphogenetic protein 4: SPKHHSQRARKKNKNCRRHSLYVDFSDVGWNDWIVAPPGYQAFYCHGDCPFPLADHLNSTNHAIVQTLVNSVNSSIPKACCVPTELSAISMLYLDEYDKVVLKNYQEMVVEGCGCR
As to B2, the “induction of PGCs” value with avian ESCs [4] is recorded as “did not respond”.
